Where two headings read alike, the source gives them in different places.
Tests used:
Experiment in all cases: microbe, parasite or virus in culture
Type in all cases: cell-based, Hepatitis C virus (HCV)
Details in all cases: Replicon Assay A
HCV replicon 1AY93H = test system: HCV replicon 1AY93H
Experimental: (§1) To measure cell-based anti-HCV activity of compounds of the present invention, two complimentary assays were employed using various replicons. In the first assay (“Replicon Assay A”), replicon cells were seeded at 2000 cells/well in 384-well 384-well flat bottom tissue culture treated clear bottom plate (Corning 3707) in the presence of the test compound. […] The final concentration of DMSO was 0.5%. Fetal bovine serum was 5%, in the assay media. Cells were harvested on day 3 by removing media and washing the cells with a suitable wash buffer. The cells are lysed with the addition of 1× Qiagen lysis buffer (Cat #1062731). The replicon RNA level was measured using real time PCR (TaqMan® EZ RT-PCR, Applied Biosystems 403028) with the following primers and probes: […]
(§2) Cyclophilin RNA was used as endogenous control and was amplified in the same reaction as NS5B (multiplex PCR). The real-time RT-PCR reactions were run on ABI PRISM 7900HT Sequence Detection System using the following program: 50° C. for 2 minutes, 60° C. for 30 minutes, 95° C. for 5 minutes, 40 cycles of 94° C. for 20 sec, 55° C. for 1 minutes.
(§3) The amount of HCV replicon RNA per cell is quantified using a linear regression curve for a known nanogram (ng) amount of HCV replicon total RNA. This is established by plotting the Cycle Threshold values (Ct) from the Neo probe and primer set versus the log (ng) for each HCV replicon total RNA standard. The amount of HCV RNA for each replicon sample is calculated by taking the sample's Ct value, minus the line intercept, divided by the slope of the line. Similarly, the amount of Cyclophilin mRNA per cell is also quantified using a linear regression curve for a known nanogram (ng) amount of HCV replicon total RNA. Again, this is established by plotting the Cycle Threshold values (Ct) from the Cyclophilin probe and primer set versus the log (ng) for each HCV replicon total RNA standard.
(§4) Data for replicons 1A, 1AY93H and 2B were obtained using Replicon Assay A and data for replicons 1AQ30D and 1B were obtained using Replicon Assay B.

HCV replicon 1A = test system: HCV replicon 1A
Experimental: as §1, §2, §3, §4

HCV replicon 2B = test system: HCV replicon 2B
Experimental: as §1, §2, §3, §4

[1] = read-out: 1A Y93H IC50, replicon 1AY93H
[2] = read-out: 1A Y93H IC50, HCV replicon 1A Y93H
[3] = read-out: 2B IC50, HCV replicon 2B

Compound | IC50 (HCV replicon 1AY93H; [1]) [nM] | IC50 (HCV replicon 1A; replicon 1A) [nM] | also measured
CCc1ccc(C2Oc3cc(-c4cnc([C@@H]5CCCN5C(=O)[C@@H](NC(=O)OC)C(C)C)[nH]4)cc(F)c3-c3cc4cc(-c5cnc([C@@H]6C[C@@H](F)CN6C(=O)C(NC(=O)OC)C6CCOC(C)(C)C6)[nH]5)ccc4n32)s1 (single isomer, unassigned) [Compound 257] | 9.38 | 0.0924 | 
COC(=O)N[C@H](C(=O)N1C[C@H](F)C[C@@H]1c1ncc(-c2ccc3c(c2)OC(c2cc4ccccc4s2)n2c-3cc3cc(-c4ncc([C@@H]5C[C@@H](F)CN5C(=O)[C@@H](NC(=O)OC)C5CCOCC5)[nH]4)ccc32)[nH]1)C1CCOCC1 (mixture of isomers) [Compound 814] |  |  | IC50 (HCV replicon 1AY93H; Hepatitis C virus, read-out: 1A Y93H IC50, HCV replicon 1A Y93H): 0.055 nM; IC50 (HCV replicon 1A; Hepatitis C virus, HCV replicon 1A): 0.1 nM
CC[C@@H]1CC(C(NC(=O)OC)C(=O)N2CCC[C@H]2c2ncc(-c3ccc4c(c3)cc3n4C(c4ccc(C5CC5)s4)Oc4cc(-c5cnc([C@@H]6CCCN6C(=O)[C@@H](NC(=O)OC)C(C)C)[nH]5)cc(F)c4-3)[nH]2)C[C@H](CC)O1 (single isomer, unassigned) [Compound 288] | 16 | 0.0046 | 
COC(=O)NC(C(=O)N1CCC[C@H]1c1ncc(-c2ccc3c(c2)cc2n3C(c3cc(C)c(C)s3)Oc3cc(-c4cnc([C@@H]5CCCN5C(=O)[C@@H](NC(=O)OC)C(C)C)[nH]4)cc(F)c3-2)[nH]1)C(C)(C)F (single isomer, unassigned) [Compound 41] | 2.45 | 0.002 | 
COC(=O)N[C@H](C(=O)C1CCC[C@H]1c1ncc(-c2ccc3c(c2)cc2n3C(c3ccc(C(F)(F)F)s3)Oc3cc(-c4cnc([C@@H]5CCCN5C(=O)[C@@H](NC(=O)OC)C(C)C)[nH]4)cc(F)c3-2)[nH]1)C(C)C (single isomer, unassigned) [Compound 90] | 0.74 |  | IC50 (HCV replicon 2B; read-out: 2B IC50, replicon 2B): 1.91 nM
COC(=O)NC(C(=O)N1CCC[C@H]1c1ncc(-c2cc(F)c3c(c2)OC(c2ccc(C4CC4)s2)n2c-3cc3cc(-c4cnc([C@@H]5CCCN5C(=O)[C@@H](NC(=O)OC)C(C)C)[nH]4)ccc32)[nH]1)C1CCOC(C)(C)C1 (single isomer, unassigned) [Compound 213] | 13.6 | 0.0653 | 
COC(=O)N[C@H](C(=O)N1CCC[C@H]1c1ncc(-c2cc(F)c3c(c2)OC(c2csc(C4CC4)c2)n2c-3cc3cc(-c4cnc([C@@H]5CCCN5C(=O)[C@@H](NC(=O)OC)C(C)C)[nH]4)ccc32)[nH]1)C(C)C (single isomer, unassigned) [Compound 321] | 5.79 |  | IC50 (HCV replicon 1A; Hepatitis C virus, replicon 1A): 0.0013 nM
COC(=O)NC(C(=O)N1[C@@H]2C[C@@H]2C[C@H]1c1ncc(-c2ccc3c(c2)cc2n3C(c3ccc(C4CC4)s3)Oc3cc(-c4cnc([C@@H]5CCCN5C(=O)[C@@H](NC(=O)OC)C(C)C)[nH]4)cc(F)c3-2)[nH]1)C1C[C@@H](C)O[C@@H](C)C1 (single isomer, unassigned) [Compound 274] | 7.87 | 0.022 | 
COC(=O)NC(C(=O)N1CCC[C@H]1c1ncc(-c2cc(F)c3c(c2)OC(c2ccc(C4CC4)s2)n2c-3cc3cc(-c4cnc([C@@H]5CCCN5C(=O)[C@@H](NC(=O)OC)C(C)C)[nH]4)ccc32)[nH]1)C1C[C@@H](C)O[C@@H](C)C1 (single isomer, unassigned) [Compound 187] | 14.8 | 0.0664 | 
COC(=O)NC(C(=O)N1CCC[C@H]1c1ncc(-c2ccc3c(c2)cc2n3C(c3ccc(C4CC4)s3)Oc3cc(-c4cnc([C@@H]5C[C@@H](F)CN5C(=O)[C@@H](NC(=O)OC)C(C)C)[nH]4)cc(F)c3-2)[nH]1)C(C)(C)F (single isomer, unassigned) [Compound 113] | 3.92 | 0.0428 | 
COC(=O)NC(C(=O)N1CCC[C@H]1c1ncc(-c2ccc3c(c2)cc2n3C(c3ccc(C4CC4)s3)Oc3cc(-c4cnc([C@@H]5CCCN5C(=O)[C@@H](NC(=O)OC)C(C)C)[nH]4)cc(F)c3-2)[nH]1)C1CCCCO1 (single isomer, unassigned) [Compound 341] | 0.52 |  | IC50 (HCV replicon 2B; read-out: 2B IC50, replicon 2B): 1.24 nM
COC(=O)NC(C(=O)N1[C@@H]2C[C@@H]2C[C@H]1c1ncc(-c2ccc3c(c2)cc2n3C(c3cc4c(s3)CCC4)Oc3cc(-c4cnc([C@@H]5CCCN5C(=O)[C@@H](NC(=O)OC)C(C)C)[nH]4)cc(F)c3-2)[nH]1)C(C)C (single isomer, unassigned) [Compound 660] |  |  | IC50 (HCV replicon 1AY93H; [2]): 1.04 nM; IC50 (HCV replicon 1A; HCV replicon 1A): 0.00338 nM
CCc1ccc(C2Oc3cc(-c4cnc([C@@H]5CCCN5C(=O)[C@@H](NC(=O)OC)C(C)C)[nH]4)cc(F)c3-c3cc4cc(-c5cnc([C@@H]6C[C@H]7C[C@H]7N6C(=O)C(NC(=O)OC)C6CCOC(C)(C)C6)[nH]5)ccc4n32)s1 (single isomer, unassigned) [Compound 198] | 14.3 | 0.077 | 
COC(=O)N[C@H](C(=O)N1CCC[C@H]1c1ncc(-c2cc(F)c3c(c2)OC(c2scc4c2OCCO4)n2c-3cc3cc(-c4cnc([C@@H]5CCCN5C(=O)[C@@H](NC(=O)OC)C(C)C)[nH]4)ccc32)[nH]1)C(C)C (single isomer, unassigned) [Compound 525] |  |  | IC50 (HCV replicon 1AY93H; [2]): 15.1 nM; IC50 (HCV replicon 2B; [3]): 3.14 nM
COC(=O)NC(C(=O)N1CCC[C@H]1c1ncc(-c2cc(F)c3c(c2)OC(c2ccc(C4CC4)s2)n2c-3cc3cc(-c4cnc([C@@H]5CCCN5C(=O)C(NC(=O)OC)C5C[C@@H](C)O[C@@H](C)C5)[nH]4)ccc32)[nH]1)C1C[C@@H](C)O[C@@H](C)C1 (single isomer, unassigned) [Compound 304] | 16.8 | 0.0455 | 
COC(=O)N[C@H](C(=O)N1CCC[C@H]1c1ncc(-c2cc(F)c3c(c2)OC(c2ccc(CC4CC4)s2)n2c-3cc3cc(-c4cnc([C@@H]5CCCN5C(=O)[C@@H](NC(=O)OC)C(C)C)[nH]4)ccc32)[nH]1)C(C)C (single isomer, unassigned) [Compound 53] |  |  | IC50 (HCV replicon 1AY93H; Hepatitis C virus, read-out: 1A Y93H IC50 (nM), replicon 1AY93H): 1.87 nM; IC50 (HCV replicon 2B; Hepatitis C virus, read-out: 2B IC50 (nM), replicon 2B): 1.95 nM
COC(=O)NC(C(=O)N1CCC[C@H]1c1ncc(-c2cc(F)c3c(c2)OC(c2ccc(C4CC4)s2)n2c-3cc3cc(-c4cnc([C@@H]5CCCN5C(=O)[C@@H](NC(=O)OC)C(C)C)[nH]4)ccc32)[nH]1)C(C)(C)F (single isomer, unassigned) [Compound 68] | 0.12 |  | IC50 (HCV replicon 2B; read-out: 2B IC50, replicon 2B): 1.12 nM
COC(=O)NC(C(=O)N1CCC[C@H]1c1ncc(-c2ccc3c(c2)cc2n3C(c3ccc(C4CC4)s3)Oc3cc(-c4cnc([C@@H]5CCCN5C(=O)[C@@H](NC(=O)OC)C(C)C)[nH]4)cc(F)c3-2)[nH]1)C1CCOC(C)(C)C1 (single isomer, unassigned) [Compound 224] | 8.88 | 0.048 | 
COC(=O)NC(C(=O)N1CCC[C@H]1c1ncc(-c2ccc3c(c2)cc2n3C(c3cc(C)c(C)s3)Oc3cc(-c4cnc([C@@H]5CCCN5C(=O)[C@@H](NC(=O)OC)C(C)C)[nH]4)cc(F)c3-2)[nH]1)C(C)(C)F (single isomer, unassigned) [Compound 42] | 42.5 | 0.0287 | 
COC(=O)NC(C(=O)N1CCC[C@H]1c1ncc(-c2ccc3c(c2)cc2n3C(c3ccc(C(F)F)s3)Oc3cc(-c4cnc([C@@H]5CCCN5C(=O)[C@@H](NC(=O)OC)C(C)C)[nH]4)cc(F)c3-2)[nH]1)C1C[C@@H](C)O[C@@H](C)C1 (single isomer, unassigned) [Compound 265] | 0.16 |  | IC50 (HCV replicon 2B; read-out: 2B IC50, replicon 2B): 0.25 nM
COC(=O)N[C@H](C(=O)N1CCC[C@H]1c1ncc(-c2cc(F)c3c(c2)OC(c2cc(C)c(C)s2)n2c-3cc3cc(-c4cnc([C@@H]5C[C@H]6C[C@H]6N5C(=O)[C@@H](NC(=O)OC)C(C)C)[nH]4)ccc32)[nH]1)C(C)C (single isomer, unassigned) [Compound 507] |  |  | IC50 (HCV replicon 1AY93H; [2]): 0.0896 nM; IC50 (HCV replicon 2B; [3]): 1.88 nM
COC(=O)NC(C(=O)N1[C@@H]2C[C@@H]2C[C@H]1c1ncc(-c2ccc3c(c2)cc2n3C(c3ccc(C4CC4)s3)Oc3cc(-c4cnc([C@@H]5CCCN5C(=O)[C@@H](NC(=O)OC)C(C)C)[nH]4)cc(F)c3-2)[nH]1)C1CCOC(C)(C)C1 (single isomer, unassigned) [Compound 277] | 0.13 |  | IC50 (HCV replicon 2B; read-out: 2B IC50, replicon 2B): 0.58 nM
CCc1ccc(C2Oc3cc(-c4cnc([C@@H]5CCCN5C(=O)[C@@H](NC(=O)OC)C(C)C)[nH]4)ccc3-c3c(F)c4cc(-c5cnc([C@@H]6CCCN6C(=O)[C@@H](NC(=O)OC)C(C)C)[nH]5)ccc4n32)s1 (single isomer, unassigned) [Compound 601] |  |  | IC50 (HCV replicon 1AY93H; [2]): 4 nM; IC50 (HCV replicon 2B; [3]): 1.24 nM
